Data published in paper PMC5554537 (Frontiers in Pharmacology, 2017).
Where two headings read alike, the source gives them in different places.

Legend:
[1] = Metabolite profile in plasma, liver and HT29 tumor after i.p. SN30000; assay type: in vivo, NIH-III mice; details: SN30000 186 mg/kg i.p.; for Metabolite/SN30000 peak area, Tumor: HT29 tumor
Procedure: Mouse plasma and tissue homogenates, prepared from tissue samples in two volumes of ice-cold PBS using a TissueLyser II (Qiagen Sciences, Germantown, MD, United States) with 30 Hz oscillation frequency for 1 min, were processed by precipitating proteins with 3 vol MeOH and centrifuging (13,000 g, 4°C for 10 min). Supernatants were diluted into 3 vol water and analyzed with an Agilent model 6460 LC-MS/MS with an in-line photodiode array absorbance detector. Chromatographic separation was performed on a Zorbax Eclipse C18 column (100 mm × 3.0 mm, 1.8 μm; Agilent Technologies) at 35°C with a flow rate of 0.6 mL/min, with positive or negative mode electrospray ionization. The mobile phase was a gradient constructed using 80% MeCN/20% water/0.1% formic acid v/v/v (A) and 0.1% formic acid in water (B) from 10% A to 80% A with a total run time of […]. The gradient profile was: 0–4 min, 10% A; 4–11 min linear increase to 60% A; 11–12 min to 80% A; held for 1 min, returned to 10% A over 0.5 min and held for 2 min before the next sample injection. Absorbance spectra were collected from 230 to 600 nm with a reference wavelength of 550 nm. The mass/charge (m/z) ratio was scanned from 100 to 800 with a fragmentor voltage of 120 V. MS^2 with various collision energies was used for further characterization of some metabolites.
Metabolites were investigated in plasma, liver and HT29 tumors following i.p. dosing of female NIH-III mice with SN30000 at 186 mg/kg, which represents its previously determined MTD for this route and mouse strain ([Gu et al., 2014]). Representative chromatograms are shown in Supplementary Figure 1. A total of 19 metabolites (M1–M19) were provisionally identified (Figure 1 and Table 1). Assignments were confirmed by comparison with synthetic standards in the case of the 1-oxide M14 and nor-oxide M13, which have previously been reported as murine metabolites of SN30000 ([Wang et al., 2012]) and for M15 which is known to be the major photodegradation product of SN30000 ([Gu et al., 2014]). In addition, the previously unreported metabolite M18, which is the main plasma metabolite at late times, was isolated from pooled plasma of mice dosed with M14 in sufficient quantity for characterization by NMR (Supplementary Data). This identified M18 as an oxidation product of M14 with an alkanoic acid side-chain (Figure 1), an assignment that was confirmed by synthesis of the authentic compound which was identical by HPLC retention time, absorbance spectrum, elemental analysis, mass spectrum and NMR spectroscopy.

[2] = Compartmental plasma PK model; assay type: in vivo
Description: This model, shown schematically in Figure 9, is based on total (free + bound) plasma concentrations; the major metabolites (M14, M13, and M18) are explicit and clearance of SN30000 occurs only by reduction to M14. The i.p. bioavailability of SN30000 was modeled with an additional term for loss from the peritoneal compartment (kloss).

[3] = in vivo; details: female, NIH-III nude, mouse, plasma, ip
Procedure: SN30000, M14 and M18 dosing solutions were prepared fresh in normal saline, filtered through 0.45 μm Acrodisc filters (Pall Life Sciences, Port Washington, NY, United States), protected from light in amber vials, and used within 3 h. Doses are expressed as mg of free base equivalent for SN30000 and M14, and free acid in the case of M18. […] Blood samples were collected from mice at various times by cardiac puncture, seconds after cervical dislocation, into ice-cold tubes containing K2EDTA. These were placed on ice immediately after collection and centrifuged (3,000 g, 3 min) within 10 min to harvest plasma. Plasma and tissues were rapidly frozen in liquid nitrogen before storage at -80°C for subsequent bioanalysis.
Non-compartmental parameters of 3H-mannitol for the data
shown in Figure 9 where female NIH-III nude mice were dosed with 3H-mannitol at
from mannitol concentrations as described in Methods for SN30000 and its metabolites.
Co-administered with Administered 16hr

[4] = system: NIH-III mice; assay: Core body (rectal) temperature and acute clinical signs after dosing; assay type: in vivo
Procedure: Supplementary Figure 3. Initial rates of core temperature decrease in (untreated) NIH-III mice post- mortem: co mparison with initial temperature change ante- mortem following treatment with benzotriazine oxides at their MTD. Temperature was measured in rectu m and liver over 15 min. Initial rates of temperature loss (°C/min) were: post- mortem (rectum):
(rectum) 0.33. The rectal temperature loss following dosing with M14 (135 mg/kg) was 0.6 °C/min (not shown for clarity). The drug-induced changes are redrawn from Fig. 4.

[5] = system: SiHa cells; assay: Oxygen consumption rate, Seahorse XFe96 analyser; assay type: cell-based, human; details: 200 µM, mitochondrial stress test
Procedure: (OCR) of the human cervical carcinoma cell line SiHa and a previously described (Guise et al., 2007) POR-overexpressing transfectant SiHa/POR, determined using a Seahorse XFe96 Analyser (Agilent). Cells were passaged in αMEM plus 5% FCS, with 1 µM puromycin to maintain POR expression in the SiHa/POR cell line. Cells were ty pically seeded at 4×10^4 cells/well in Seahorse 96 well plates (without puromycin) and ~ 18 hr later the medium was changed to Seahorse medium with 10 mM glucose and 2 mM glutamine (SMGG) adjusted to pH 7.35 (150 µl/well). Plates were degassed to remove CO2, and inhibitors were added serially using the Seahorse injectors (25 µl/injection) with rotenone (final concentration 0.5 µM) typically added at the start of the 30 min equilibration in the flux analyser. OCR was monitored for three 3 min periods following each drug addition. […]
injection 1 and at each subsequent injection to maintain concentrations at 200 µM continuously during the test. The control received equivalent injections of SMGG without drugs. In all cases (including controls), injection 2 added oligomycin to give 0.5 µM, injection 3 added carbonyl cyanide […] (FCCP) to 0.5 µM, and injection 4 added rotenone and antimy cin to 1 µM each. V alues are means and errors are standard deviations, for 6 replicate cultures. […]
suppressed by M14, both in the presence (injection 1) and absence (injection 4) of respiratory […]
presence or absence of 0.5 µM rotenone when SN30000 is added cumulatively to give the indicated concentrations. Values are means and SEM for 5 replicate cultures. The fall in OCR after transient stimulation at each addition of SN30000 is consistent with the pattern for CHO/POR cells in Supplementary Fig. 4A.
C: Concentration dependence of increases in OCR by SiHa/POR cells, measured at the first […]
effects noted above. Left panel: SN30000. Right panel: TPZ. Values are means and errors are […]

[6] = system: NIH-III mice; assay: Mouse toxicity: MTD, survival and body weight loss after single i.p. doses; assay type: in vivo; details: i.p., NIH-III mice, as stated for the temperature study (Figure 4)
Description: Mouse toxicity SN30000 and metabolites M14 and M18: survival and body weight loss following single i.p. doses to NIH-III mice.
Cmpd Dose Body weight nadir Body weight nadir
(µmol/kg) Survivala Survivala
Day Weight loss (%)b Day Weight loss (%)b […]
a Survival reported as a fraction of total nu mber of animal treated at a giv en dose, with an observation time of 14 days. Deaths were predominantly due to humane ter mination because of persistent clinical signs or body weight loss > 15% of pretreatment values. b Body weig ht loss at nadir, relative to pre-treatment values. Values are mean and errors are […]
c Data from Gu et al., 2014 d Mouse died <24 hr after dosing.

[7] = administered 16hr after SN30000 0 mg/kg
[8] = at the highest i.p. dose of co-administered SN30000
[9] = co-administered with SN30000 18.6 mg/kg i.p.
[10] = co-administered with SN30000 92.8 mg/kg i.p.
[11] = co-administered with SN30000 186 mg/kg i.p.

For `[O-][n+]1nc(CCC[N+]2([O-])CCOCC2)nc2cc3c(cc21)CCC3` [M15], the “Metabolite/SN30000 peak area, Tumor” value [1] was 0.24, the “Metabolite/SN30000 peak area, Liver” value [1] was 0.21 and the “Metabolite/SN30000 peak area, Plasma” value [1] was 0.26.
For `[O-][n+]1nc(CCCN2CCOCC2)nc2cc3c(cc21)CC=C3` [M5], the “Metabolite/SN30000 peak area, Tumor” value [1] was 0.04, the “Metabolite/SN30000 peak area, Liver” value [1] was 0.64 and the “Metabolite/SN30000 peak area, Plasma” value [1] was 0.05.
Work on `OC[C@@H](O)[C@@H](O)[C@H](O)[C@H](O)CO` [Mannitol, mannitol] yielded an AUC (3H-mannitol 25 µmol/kg co-administered with SN30000 1.86 mg/kg i.p.) of 16.1 µM.hr/L, an AUC [7] of 17.5 µM.hr/L and an AUC (administered 16hr after SN30000 18.6 mg/kg i.p.) of 19.6 µM.hr/L. The AUC (administered 16hr after SN30000 186 mg/kg i.p.) was 20.4 µM.hr/L, the “Increase in AUC” value [8] was 3 fold and the “Increase in plasma half-life” value [8] was ~2 fold. For the same compound, the AUC [9] was 17.9 µM.hr/L, the AUC [10] was 36.2 µM.hr/L and the AUC [11] was 44.5 µM.hr/L. For the same compound, the “Central compartment volume V1” value ([2]; 1-Oxide and Nor-oxide values fixed) was 0.39 L/kg, the “Approximate % suppression per °C of CL” value ([2]; NIH-III, mouse, in vivo) was ~24% and the clearance ([2]; NIH-III, mouse, plasma, other: i.p. and i.v. datasets fitted simultaneously, model clearance of the compound, read-out: CL (converted)) was 19.5 mL/min/kg. For the same compound, the Vd ([2]; NIH-III, mouse, plasma, other: i.p. and i.v. datasets fitted simultaneously, read-out: Steady state volume VSS) was 0.39 L/kg, the Cmax ([3]; 18.6 mg/kg, administered 16hr after SN30000 18.6 mg/kg i.p.) was 36.9 µM and the half-life ([3]; 18.6 mg/kg, T1/2, administered 16hr after SN30000 18.6 mg/kg i.p.) was 21 min. The Cmax ([3]; 186 mg/kg, administered 16hr after SN30000 186 mg/kg i.p.) was 33.2 µM, the half-life ([3]; 186 mg/kg, T1/2, administered 16hr after SN30000 186 mg/kg i.p.) was 23.2 min and the Cmax [3, 7] was 31.7 µM. The Cmax ([3]; co-administered with SN30000 1.86 mg/kg i.p.) was 41.2 µM, the Cmax [3, 9] was 43.5 µM and the Cmax [3, 10] was 52.3 µM. For the same compound, the Cmax [3, 11] was 51 µM, the half-life ([3]; T1/2, administered 16hr after SN30000 0 mg/kg) was 19.7 min and the half-life ([3]; T1/2, co-administered with SN30000 1.86 mg/kg i.p.) was 14.1 min. It also gave a half-life ([3]; T1/2, co-administered with SN30000 18.6 mg/kg i.p.) of 13.1 min, a half-life ([3]; T1/2, co-administered with SN30000 92.8 mg/kg i.p.) of 24.6 min and a half-life ([3]; T1/2, co-administered with SN30000 186 mg/kg i.p.) of 26.9 min.
With `OCCNCCCc1nnc2cc3c(cc2n1)CCC3` [M11] the “Metabolite/SN30000 peak area, Tumor” value [1] was 0.06, the “Metabolite/SN30000 peak area, Liver” value [1] was 0.34 and the “Metabolite/SN30000 peak area, Plasma” value [1] was 0.04.
In the case of `[O-][n+]1nc(CCCNCCO)nc2cc3c(cc21)CCC3` [M12], the “Metabolite/SN30000 peak area, Tumor” value [1] is reported as 0.16, the “Metabolite/SN30000 peak area, Liver” value [1] is reported as 1.06 and the “Metabolite/SN30000 peak area, Plasma” value [1] is reported as 0.13.
For `O=C1COCCN1CCCc1nc2cc3c(cc2[n+]([O-])n1)CCC3` [M19], the “Metabolite/SN30000 peak area, Tumor” value [1] was 0.02, the “Metabolite/SN30000 peak area, Liver” value [1] was 0.27 and the “Metabolite/SN30000 peak area, Plasma” value [1] was 0.03.
In the case of `Nc1n[n+]([O-])c2ccccc2[n+]1[O-]` [TPZ, tirapazamine, reference compound], the “Initial rate of temperature loss (rectum)” value ([4]; i.p. SN30000 186 mg/kg, TPZ 31.7 mg/kg, M14 135 mg/kg) is reported as 0.33 °C/min, the “Effect on core body temperature” value ([4]; i.p. dosing at MTD, compared with SN30000) is reported as “induced hypothermia” and the “Effect on oxygen consumption rate (OCR)” value [5] is reported as “increased”. It also gave an MTD [6] of 31.7 mg/kg.
In the case of `O=C(O)CCc1nnc2cc3c(cc2n1)CCC3` [M17], the “Metabolite/SN30000 peak area, Tumor” value [1] is reported as 0.14, the “Metabolite/SN30000 peak area, Liver” value [1] is reported as 0.12 and the “Metabolite/SN30000 peak area, Plasma” value [1] is reported as 0.11.
With `[O-][n+]1nc(CCCNCCO)[n+]([O-])c2cc3c(cc21)CCC3` [M7] the “Metabolite/SN30000 peak area, Tumor” value [1] was 0.06, the “Metabolite/SN30000 peak area, Liver” value [1] was 0.17 and the “Metabolite/SN30000 peak area, Plasma” value [1] was 0.06.
With `O=C(O)CCc1n[n+]([O-])c2cc3c(cc2[n+]1[O-])CCC3` [M16] the “Metabolite/SN30000 peak area, Tumor” value [1] was 0.49, the “Metabolite/SN30000 peak area, Liver” value [1] was 0.34 and the “Metabolite/SN30000 peak area, Plasma” value [1] was 0.50.
